A short description of this series: Boiling temperature at pressure P. The conditions noted are these: 101.33 kPa; Liquid; Ebulliometric method (Recirculating still).

± gives the expanded uncertainty stated by the source.

`CCc1ccccc1` [ethylbenzene]: the “Boiling temperature at pressure P” value is 136.20 ± 0.05 °C. Then `CC(C)c1ccccc1` [isopropylbenzene], with 152.40 ± 0.05 °C; and `O=S1(=O)CCCC1` [sulfolane], with 287.33 ± 0.05 °C. Then `Cc1ccccc1` [toluene], with 110.80 ± 0.05 °C.

These data come from the NIST ThermoML archive (doi:10.1016/j.jct.2011.06.015).
